Data from patent US8663669B2, “Pesticide treatment of soils or substrates with sulphur compounds” (Arkema France, priority 2002, dated 2014).

Assays:
Rhizoctonia solani = assay: Fungicidal efficacy by gassing, colonized barley grains; assay type: cell-based; parameters: Vitality score Nm (over 11 days): scale not given here; Reduction in viability RV / Reduction in vitality score RNm: unit not given here; settings: for Reduction in viability RV / Reduction in vitality score RNm: compared with the control
Procedure: These four organisms are the following:
Rhizoctonia solani: a very important group of polyphagous pathogens in the genus Rhizoctonia and which attack very many market garden crops including sweet pepper and lettuce.
• Sclerotinia sclerotiorum: sclerotia • Sclerotium rolfsii: sclerotia • Rhizoctonia solani: colonized barley grains (mycelium and sclerotia) • Phytophthora cactorum: colonized millet grains (mycelium, sporangia and oospores) Preparation of the Fungi (24 h Before the Gassing Operation) 1. Preparation of the sclerotia of Sclerotinia sclerotiorum and of Sclerotium rolfsii: The fungi are cultured on malt agar medium until the sclerotia are obtained. The sclerotia are collected in a sterile manner and stored dry in empty Petri dishes until they are used. The sclerotia used for the trial are over 3 months old and are perfectly dormant. 2. Preparation of Phytophthora cactorum and of Rhizoctonia solani: The millet and barley used for the multiplication of the two fungi are moistened with ultrapure water by immersing for 24 hours. The grains are then slightly drained and then distributed into flasks and autoclaved (3 autoclavings at 110° C. for 20 minutes, 3 times at 24 hour intervals). Fragments of fungal culture are introduced into the flasks which are then incubated at 22° C.±2° C. (white light 18 h) until homogeneous colonization is obtained. The grains are then removed from the flasks in a sterile manner, dried in the sterile stream of a safety cabinet and then stored in the dry state until they are used. Conditions for Gassing and for Desorption
All the batches of fungi to be treated are placed for a few hours at the trial temperature (20° C.). Between 35 and 300 units of fungi or “propagules” (grains or sclerotia) are subjected to gassing during each trial.
Each fumigation chamber comprising to one or more species of fungi corresponds to a glass round-bottomed flask which is impervious to the gas and has a volume of 11 litres. Each round-bottomed flask is equipped with branch connections, one at the bottom for introducing the liquid DMDS, one at the top for collecting the air sample with a syringe.
Before introducing the gas, a partial vacuum (−500 mbar) is established in the round-bottomed flask with a vacuum pump. This makes it possible, on the one hand, to avoid the phenomenon of excess pressure due to the expansibility of DMDS in the round-bottomed flask and, on the other hand, to promote better homogeneity of the air-gas mixture in the first few seconds which follow injection. The DMDS (weighed accurately to the mg) is injected with a syringe, in liquid form, through the bottom branch connection, that is to say under the screen placed at half height of the round-bottomed flask and supporting the batches of fungi. After introducing the product, the internal pressure of the round-bottomed flask is re-established at atmospheric pressure. A magnetic stirrer operates during the entire duration of the treatment in order to properly homogenize the air-gas mixture.
At the end of the gassing, the cover for the round-bottomed flask is removed. One minute after this operation, the batches of fungi gassed are taken out and left in the open air for 15 minutes for desorption of the DMDS. They are then transferred into a Petri dish, the latter remaining open for 5 minutes to allow perfect desorption of the gas. […]

soil microorganisms = assay: Effect on soil microorganisms (oxygen consumed); settings: 150 kg/ha (formulation A)
Procedure: The effect of DMDS, applied at 150 kg/ha in the form of formulation A, to soil microorganisms was evaluated according to the following standard methods: • “Recommended tests for assessing the side-effects of pesticides on the soil micro flora”, Technical Report Agricultural Research Council Weed Research Organization, 1980 (59). • “OECD Guideline for Testing of Chemicals—Soil Microorganisms: Carbon Mineralization Test”, Draft document, June 1996.
The effect of DMDS on soil microorganisms is measured by the reduction in the oxygen consumed by these microorganisms, expressed in mg O2 per kg of dry soil per h, 14, 28, 42, 57 days after the treatment (Table 14).

[1] = CT 1 050 g·h/m^3 (C 15.91 g/m^3, T 66 h)
[2] = CT 1 402 g·h/m^3 (C 21.24 g/m^3, T 66 h)
[3] = CT 1 450 g·h/m^3 (C 30.96 g/m^3, T 48 h)
[4] = CT 1 899 g·h/m^3 (C 28.77 g/m^3, T 66 h)
[5] = CT 1 981 g·h/m^3 (C 30.02 g/m^3, T 66 h)
[6] = CT 2 460 g·h/m^3 (C 51.25 g/m^3, T 48 h)
[7] = CT 2 471 g·h/m^3 (C 37.44 g/m^3, T 66 h)
[8] = CT 2 837 g·h/m^3 (C 42.98 g/m^3, T 66 h)
[9] = CT 2 974 g·h/m^3 (C 45.06 g/m^3, T 66 h)
[10] = CT 3 169 g·h/m^3 (C 48.02 g/m^3, T 66 h)
[11] = CT 3 467 g·h/m^3 (C 52.53 g/m^3, T 66 h)
[12] = CT 419 g·h/m^3 (C 17.46 g/m^3, T 24 h)
[13] = CT 625 g·h/m^3 (C 26.04 g/m^3, T 24 h)
[14] = CT 703 g·h/m^3 (C 29.29 g/m^3, T 24 h)
[15] = CT 907 g·h/m^3 (C 37.79 g/m^3, T 24 h)

CSSC [DMDS, dimethyl disulphide]
Viability V (Rhizoctonia solani; [1]): 89.2%
Vitality score Nm (over 11 days) (Rhizoctonia solani; [1]): 7.0
Reduction in viability RV (Rhizoctonia solani; [1]): 10.8
Reduction in vitality score RNm (Rhizoctonia solani; [1]): 22.2
Viability V (Rhizoctonia solani; [2]): 96.9%
Vitality score Nm (over 11 days) (Rhizoctonia solani; [2]): 7.6
Reduction in viability RV (Rhizoctonia solani; [2]): 3.1
Reduction in vitality score RNm (Rhizoctonia solani; [2]): 15.0
Viability V (Rhizoctonia solani; [3]): 98.5%
Vitality score Nm (over 11 days) (Rhizoctonia solani; [3]): 4.4
Reduction in viability RV (Rhizoctonia solani; [3]): 1.5
Reduction in vitality score RNm (Rhizoctonia solani; [3]): 51.3
Viability V (Rhizoctonia solani; [4]): 84.3%
Vitality score Nm (over 11 days) (Rhizoctonia solani; [4]): 6.0
Reduction in viability RV (Rhizoctonia solani; [4]): 15.7
Reduction in vitality score RNm (Rhizoctonia solani; [4]): 33.2
Viability V (Rhizoctonia solani; [5]): 94.7%
Vitality score Nm (over 11 days) (Rhizoctonia solani; [5]): 7.4
Reduction in viability RV (Rhizoctonia solani; [5]): 5.3
Reduction in vitality score RNm (Rhizoctonia solani; [5]): 17.2
Viability V (Rhizoctonia solani; [6]): 11.0%
Vitality score Nm (over 11 days) (Rhizoctonia solani; [6]): 0.3
Reduction in viability RV (Rhizoctonia solani; [6]): 89.0
Reduction in vitality score RNm (Rhizoctonia solani; [6]): 96.2
Viability V (Rhizoctonia solani; [7]): 24.1%
Vitality score Nm (over 11 days) (Rhizoctonia solani; [7]): 0.6
Reduction in viability RV (Rhizoctonia solani; [7]): 75.9
Reduction in vitality score RNm (Rhizoctonia solani; [7]): 92.0
Viability V (Rhizoctonia solani; [8]): 2.2%
Vitality score Nm (over 11 days) (Rhizoctonia solani; [8]): 0.1
Reduction in viability RV (Rhizoctonia solani; [8]): 97.8
Reduction in vitality score RNm (Rhizoctonia solani; [8]): 98.4
Viability V (Rhizoctonia solani; [9]): 9.4%
Vitality score Nm (over 11 days) (Rhizoctonia solani; [9]): 0.1
Reduction in viability RV (Rhizoctonia solani; [9]): 90.6
Reduction in vitality score RNm (Rhizoctonia solani; [9]): 98.4
Viability V (Rhizoctonia solani; [10]): 1.2%
Vitality score Nm (over 11 days) (Rhizoctonia solani; [10]): 0.05
Reduction in viability RV (Rhizoctonia solani; [10]): 98.8
Reduction in vitality score RNm (Rhizoctonia solani; [10]): 99.3
Viability V (Rhizoctonia solani; [11]): 0%
Vitality score Nm (over 11 days) (Rhizoctonia solani; [11]): 0
Reduction in viability RV (Rhizoctonia solani; [11]): 100
Reduction in vitality score RNm (Rhizoctonia solani; [11]): 100
Viability V (Rhizoctonia solani; [12]): 100%
Vitality score Nm (over 11 days) (Rhizoctonia solani; [12]): 9.0
Reduction in viability RV (Rhizoctonia solani; [12]): 0
Reduction in vitality score RNm (Rhizoctonia solani; [12]): 0
Viability V (Rhizoctonia solani; [13]): 100%
Vitality score Nm (over 11 days) (Rhizoctonia solani; [13]): 8.7
Reduction in viability RV (Rhizoctonia solani; [13]): 0
Reduction in vitality score RNm (Rhizoctonia solani; [13]): 3.1
Viability V (Rhizoctonia solani; [14]): 100%
Vitality score Nm (over 11 days) (Rhizoctonia solani; [14]): 8.3
Reduction in viability RV (Rhizoctonia solani; [14]): 0
Reduction in vitality score RNm (Rhizoctonia solani; [14]): 7.3
Viability V (Rhizoctonia solani; [15]): 100%
Vitality score Nm (over 11 days) (Rhizoctonia solani; [15]): 7.1
Reduction in viability RV (Rhizoctonia solani; [15]): 0
Reduction in vitality score RNm (Rhizoctonia solani; [15]): 21.6
Oxygen consumed by soil microorganisms (soil microorganisms; Day 0, untreated control 11.23): 9.70 mg O2 per kg of dry soil per h
Oxygen consumed by soil microorganisms (soil microorganisms; Day 14, untreated control 10.18): 8.74 mg O2 per kg of dry soil per h
Oxygen consumed by soil microorganisms (soil microorganisms; Day 28, untreated control 7.87): 6.62 mg O2 per kg of dry soil per h
Oxygen consumed by soil microorganisms (soil microorganisms; Day 42, untreated control 9.12): 8.93 mg O2 per kg of dry soil per h
Oxygen consumed by soil microorganisms (soil microorganisms; Day 57, untreated control 7.30): 4.90 mg O2 per kg of dry soil per h
